In paper PMC9316313, “Biochemical Properties of Atranorin-Induced Behavioral and Systematic Changes of Laboratory Rats” (Life, 2022):

Biological target: T1, human serum albumin (HSA) (Homo sapiens, UniProt P02768)
T1 construct: gene ALB; Albumin from human serum (A1887, Sigma Aldrich)
Assay: intrinsic fluorescence quenching (Stern-Volmer, binding constant KB), synchronous and 3D fluorescence
Conditions: read-out: intrinsic fluorescence quenching (Stern-Volmer, binding constant KB), synchronou (converted)

T1 sequence (P02768 25-609): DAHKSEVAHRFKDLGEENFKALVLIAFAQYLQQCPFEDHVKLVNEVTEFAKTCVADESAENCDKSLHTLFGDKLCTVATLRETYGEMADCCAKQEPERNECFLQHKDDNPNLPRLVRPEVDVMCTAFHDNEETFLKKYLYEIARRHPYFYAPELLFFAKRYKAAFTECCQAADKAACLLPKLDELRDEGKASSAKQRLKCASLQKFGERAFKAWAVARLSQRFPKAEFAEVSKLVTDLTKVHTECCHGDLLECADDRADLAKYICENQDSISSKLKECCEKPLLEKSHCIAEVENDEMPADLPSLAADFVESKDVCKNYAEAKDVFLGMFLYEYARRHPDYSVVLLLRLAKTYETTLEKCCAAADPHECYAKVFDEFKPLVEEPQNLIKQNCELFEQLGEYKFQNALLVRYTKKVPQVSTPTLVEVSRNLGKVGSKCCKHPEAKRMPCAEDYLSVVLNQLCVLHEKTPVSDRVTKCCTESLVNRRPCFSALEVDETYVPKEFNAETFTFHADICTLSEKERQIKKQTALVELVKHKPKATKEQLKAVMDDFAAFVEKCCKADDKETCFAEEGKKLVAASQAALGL

## COC(=O)c1c(C)cc(OC(=O)c2c(C)cc(O)c(C=O)c2O)c(C)c1O [ATR, Atranorin]
  Kd: 235 nM
